# Residues, ends and D or L forms follow the SMILES beside them. *: point of attachment. Tos = Cc1ccc(S(=O)(=O)*)cc1
row,SMILES,melting point
1,CCSC1=C(C#N)C(c2ccccc2)(c2ccccc2)C(=O)N1CCCBr,97 °C
2,COc1ccc(Nc2ncccc2NS(=O)(=O)c2ccc(OC)cc2)cc1,145 to 147 °C
3,NC(Cc1ccc(F)cc1)=NO,104 to 106 °C
4,COc1ccc2c(c1)OC(CNCCCOc1ccc3c(=O)ccoc3c1)CO2 (configuration not stated),155 to 157 °C
5,COc1ccc(-c2ccc(N)nn2)cc1OCC(C)C,187 °C
6,CCNC(=O)Nc1n[nH]c2ccc(-c3ncccc3Cl)cc12,178 to 180 °C
7,O=[N+]([O-])c1oc2cc3c(cc2c1-c1ccccc1)OCO3,180 to 183 °C
8,COc1ccc(C(=O)Nc2ccc(F)c(F)c2)cc1NS(=O)(=O)c1ccc([N+](=O)[O-])cc1,234 to 236 °C
9,CN1CC=C(c2c[nH]c3ccc(NS(C)(=O)=O)cc23)CC1,210 to 214 °C
10,O=C1C(=O)c2ccccc2C2=C1SCC1(CCN(C(=O)c3cccc(Cl)c3)CC1)O2,155 to 158 °C
11,O=c1oc(-c2ccccc2F)nc2c(Cl)ccc(Cl)c12,140 °C
12,CCCCCCc1cc2c(s1)-n1c(C)nnc1CN=C2c1cc(OC)c(OC)c(OC)c1,111 to 113 °C
13,CCCCCCCCCCCCCCCCCC(O)c1ccc(C2=NC(C)(C)CO2)cc1 (configuration not stated),72 to 75 °C
14,N#Cc1ncccc1Oc1cccc(F)c1,92 to 93 °C
15,C=Cc1c(CS)cnc(C)c1O,130 to 140 °C
16,CS(=O)c1nnc(-c2ccc3occ(-c4cc(F)ccc4F)c3c2)o1 (configuration not stated),151 to 152 °C
17,CN(C)C(=O)c1nc(-c2cccnc2)nc2c1[nH]c(=O)n2-c1ccccc1,250 to 252 °C
18,Oc1ccc2cc(OCC(O)CCc3cccnc3)ccc2c1 (configuration not stated),165 to 166 °C
19,[N-]=[N+]=NCc1ccc(C(=O)c2c(Cl)cccc2Cl)cc1,92 to 94 °C
20,O=[N+]([O-])c1ccc(-c2nc3cc(OCc4ccccc4)ccc3s2)c(Cl)c1,156 to 157 °C
21,COc1ccc(Cn2c(=O)c(Cl)nc3ccc4ccccc4c32)c(OC)c1,186 °C
22,S=c1[nH]c2cccnc2n1-c1ccc2c(c1)OCO2,278 °C
23,O=c1c2cc(O)ccc2nc(CSc2ncnc3[nH]cnc23)n1-c1ccccc1Cl,186 to 214 °C
24,COc1cc2c(c(Cl)c1Cl)C(=O)C(C)(C)C2c1ccccc1 (configuration not stated),146 to 148 °C

row,SMILES,melting point
1,CC(C)C(=O)NC(=O)c1cccc(-c2noc(-c3ccccc3F)n2)c1,183 to 184 °C
2,Cc1ccc2nc3c(nc2c1)SC(C#N)=C(C#N)S3,213 to 215 °C
3,O[C@@H]1[C@H](O)CS[C@H]1n1cnc2c(NCc3cccc(I)c3)ncnc21,199 to 200 °C
4,O=Cc1ccc(C=Cc2ccc3ccccc3n2)cc1,112 to 113 °C
5,N#Cc1nn(-c2c(Cl)cc(C(F)(F)F)cc2Cl)cc1-c1ccoc1,139 °C
6,COc1ccc(CNc2nc(-c3ccccc3)c(-c3ccc(=O)n(C)n3)nc2C#N)cc1,166 to 168 °C
7,Nc1nccnc1C=O,110 to 114 °C
8,CN1C(=O)C(c2cccc(Br)c2)(c2ccc(OC(F)F)c(C3CC3)c2)N=C1N (configuration not stated),85 to 87 °C
9,O=C(Nc1ccc2ccc(Cl)nc2n1)c1ccc2c(c1)OCO2,256 °C
10,CCC(O)(CC)[C@H](Nc1nnc(-c2c(OS(=O)(=O)C(F)(F)F)ccc3ccccc23)c2ccccc12)c1ccccc1,117 to 119 °C
11,Cn1c([N+](=O)[O-])cnc1C1=NOC2CCCCC12 (configuration not stated),119 to 121 °C
12,N#Cc1cc([N+](=O)[O-])ccc1-c1ccccc1,111 to 115 °C
13,O=C1CC2CCCCC2=NN1c1ccc(Cl)cc1F (configuration not stated),110 to 112 °C
14,O=C1CCCc2c1c1cccc(Cl)c1n2Cc1ccccc1,161 to 162 °C
15,O=C(NNC(=O)c1ccccc1C(F)(F)F)c1ccccc1F,171 to 173 °C
16,O=C(O)c1cc(OCCCOc2cccc(-c3ccccc3)c2)cc(OCCCOc2cccc(-c3ccccc3)c2)c1,65 to 69 °C
17,COc1ccccc1Oc1c(Cl)nc(-c2cccc(OCc3ccccc3)c2)nc1NS(=O)(=O)c1ccc(C)cn1,176 to 180 °C
18,O=CCCNc1[nH]c(-c2ccc(F)cc2)nc1-c1ccccc1,201 to 202 °C
19,CC(C)(C)OC(=O)c1ncn2c1[C@@H]1CCCN1C(=O)c1c-2ccc(Cl)c1Cl,213 to 214 °C
20,CN(C)C=C(C#N)C=NN(C)C,130 to 134 °C
21,c1ccc(-c2c3ccccc3nc3ccccc23)nc1,192 to 205 °C
22,CCCCCCCCCCCc1nnc2n1-c1ccccc1C(c1ccccc1)=NC2,76 to 77 °C
23,Fc1ccc(Cn2c(NC3CCN(CCc4cn5ccccc5n4)CC3)nc3ccccc32)cc1,208 °C

# The next lines start with the values.
row,melting point,SMILES
1,207 to 211 °C,Cc1noc(NS(=O)(=O)c2ccc(NC(=O)c3ccccc3)cc2-c2ccc(CC(C)C)cc2)c1C
2,151 °C,COP(=O)(OC)C(O)[C@H](CC1CCCCC1)NC(=O)[C@H](CC(C)C)NC(=O)OCc1ccccc1 (some centres not stated)
3,102 to 105 °C,COc1ccc2cc(CC(=O)N3CC=C(c4cccc(C(F)(F)F)c4)CC3)ccc2c1
4,64 to 65 °C,O=C(CCC(F)(F)Cl)Nc1ccccn1
5,129 to 131 °C,CCCOC1=NS(=O)(=O)N(C)C(Oc2ccc([N+](=O)[O-])cc2)=N1
6,65 to 67 °C,CCCCCCCCCCCCCCCCC(NC(C)=O)(C(=O)OCC)C(=O)OCC
7,187 to 189 °C,COC(=O)[C@H](O)[C@@H](NS(=O)(=O)c1ccc([N+](=O)[O-])cc1)c1ccccc1
8,145 to 146 °C,Cc1cc(C(C)N(O)C(N)=O)c(C)o1 (configuration not stated)
9,157 to 158 °C,CC(C)COc1ccc2c(n1)CC(c1ccccc1)CC2=O (configuration not stated)
10,210 to 212 °C,CN(C)c1ccc(NC(=O)N(CC2CCCCC2)C[C@H]2CC[C@H](CN(CC3CCCCC3)C(=O)Nc3ccc(N(C)C)cc3)CC2)cc1
11,72 °C,CC(C)(C)c1ccc2c(c1)C(C(=O)O)=Cc1ccccc1O2
12,> 247 °C,Cc1cccc2c3c([nH]c12)CCCC3=O
13,247 °C,CCCCOc1nc(N)c2[nH]c(=O)n(CCCNc3cccc(CC(=O)O)c3)c2n1
14,96 to 97 °C,CS(=O)(=O)N1CCC(CO)CC1
15,43 to 46 °C,C[Si](C)(C)c1cc(C(F)(F)F)ccc1OC1CCCCO1 (configuration not stated)
16,188 to 190 °C,CCOC(=O)c1ncn(C(c2ccccc2)(c2ccccc2)c2ccccc2)c1C
17,171 °C,COc1cccc(NC(=O)CN2C(=O)c3ccccc3C2=O)c1
18,161 to 162 °C,CCCc1nc2c(N)nc3cccnc3c2n1CCCCN(OC)C(=O)NC(C)C
19,134 to 135 °C,CCOC(=O)c1cn(Cc2ccccc2)nc1OCc1ccc(OCc2nc(-c3ccco3)oc2C)c(O)c1
20,118 to 120 °C,CC(C)(CCc1ccc(OCCO)cc1)NCC(O)c1ccccc1 (configuration not stated)
21,173 to 175 °C,Cc1ccc(S(=O)(=O)N[C@@H](CCC(=O)O)C(=O)N[C@@H](Cc2ccc(O)cc2)C(=O)O)cc1 (Tos-Glu-Tyr-OH)
22,59 to 62 °C,CC(=O)SCCC(=O)N1CCC=C1C(=O)OC(C)(C)C
23,200 to 201 °C,CC1(C)CN=C2C(=O)c3cc(S(=O)(=O)N4CCCC4)ccc3N2C1
24,199 to 200 °C,O=C(NCc1ccc(F)cc1)c1nc2n(c(=O)c1OCc1ccccc1)CCN2c1ccccc1
25,175 to 176 °C,O=C(O)c1cccc(-c2ccc3c(c2)N(Cc2ccc(Cl)cc2Cl)CC3)c1

row,melting point,SMILES
1,219 to 220 °C,Cc1ccc2[nH]c3c(c2c1)CCNC3(C(=O)OC(C)(C)C)C1(NC(=O)OCc2ccccc2)CCC1 (configuration not stated)
2,63 to 64 °C,CCC(Oc1cccc(OC)c1)C(=O)NCc1ccccc1 (configuration not stated)
3,89 to 91 °C,N#CCCCSc1cccc(NC(N)=NCC(F)(F)F)n1
4,208 to 209 °C,CC(C)Cn1c(=O)n(C)c(=O)c2c(Sc3ccc(N)cn3)c(Cc3cccc4ccccc34)sc21
5,157 to 158 °C,COc1ccc(C=C(C#N)C=O)cc1OC
6,113 to 114 °C,COC(=O)c1cc([N+](=O)[O-])cc([N+](=O)[O-])c1SCc1ccccc1
7,40 to 41 °C,COCCOC/C(=C\S(=O)(=O)c1ccc(C)cc1)C(=O)OC(C)(C)C
8,118 °C,CCC(=O)C1=C(O)CC(c2cc3ccccc3cc2C)CC1=O (configuration not stated)
9,199 °C,Cc1cccc(NC(=O)NCC(=O)N2[C@@H](C(=O)OC(C)(C)C)C[C@@H](C(=O)N(C)C)[C@H]2c2ccccc2)c1 (racemic)
10,86 °C,C[C@H]1CN(c2ccc(C(F)(F)F)c(Cl)n2)CCN1C(=O)OC(C)(C)C
11,75 °C,CCOC(=O)c1nc2ccc(OC)cc2nc1Cl
12,67 to 68 °C,COC(=O)c1ccc(C#CC#C[Si](C)(C)C)cc1
13,188 to 191 °C,CCOC(=O)c1ncn2c1[C@@H]1CCN1C(=O)c1sccc1-2
14,135 to 137 °C,O=C(NCCN1CCCC1)c1ccc(-c2ccc3nnn(Cc4ccc5ncccc5c4)c3n2)cc1
15,135 °C,CCOC(=O)C1=C(COCCNc2noc(N)n2)NC(C)=C(C(=O)OC)C1c1ccccc1Cl (configuration not stated)
16,105 to 106 °C,"Cc1ccccc1Sc1ccc2c(c1)CCC1N(C)C(=O)CCC21C (single isomer, unassigned; (+))"
17,65 to 67 °C,CNCc1ccc([C@H]2CC[C@H](OC(=O)Cc3ccc(Cl)cc3)CC2)cc1
18,100 °C,Cc1c(C(=O)c2cccs2)cccc1C(C)C(=O)O (configuration not stated)
19,142 to 143 °C,Cc1cc(SCc2ccc(OCc3ccc(C(F)(F)F)cc3)cc2)c(Cl)cc1OCC(=O)O
20,29 to 31 °C,CCOC(=O)c1c(C(F)(F)F)nc(C(F)F)c(C(=O)OC)c1OC(C)C
21,123 to 124 °C,Cc1cc(C)nc(NC(=O)Cc2ccsc2)c1
22,143 °C,CC(C)(C)OC(=O)Nc1cc(CC#N)c(C#Cc2ccccc2)cc1N
23,168 to 170 °C,Cc1nc(NC(=O)c2ccc(OC(F)(F)F)cc2)sc1C(=O)NCc1ccccc1
24,188 to 190 °C,CCc1nc2cc(C(C)=O)ccc2n1-c1ccc(CCOC(=O)NS(=O)(=O)c2ccc(C)cc2)cc1
25,123 to 125 °C,CN(C)[C@H]1CC[C@@H](C(=O)N2CCC(c3[nH]nc4c3C(=O)c3c(NC(=O)NN5CCOCC5)cccc3-4)CC2)CC1
